Reference: ChEMBL document CHEMBL1914321, “Molecular wipes: application to epidemic keratoconjuctivitis” (J Med Chem, 2011)
Blank lines part the entries; values can stand above or below the compound they belong to. Calls of active or inactive are those of the source. No cut-off for these calls is given here.

Key:
Type in all cases: functional, organism-based
Human adenovirus D37 [1] = assay: Inhibition of 35S-labeled Human adenovirus 37 1477 virion binding to human HCE cells at 1:9 compound to PDA ratio formulation prepared by extrusion method after 1 hr by scintillation counting; details: Human mastadenovirus D, 1477, HCE
Human adenovirus D37 [2] = assay: Inhibition of 35S-labeled Human adenovirus 37 1477 virion binding to human HCE cells at 0.1:9.9 compound to PDA ratio formulation prepared by probe sonication method after 1 hr by scintillation counting; details: Human mastadenovirus D, 1477, HCE
Human adenovirus D37 [3] = assay: Induction of Human adenovirus 37 1477 aggregation by negative staining transmission electron microscopy
Human adenovirus D37 [4] = assay: Antiviral activity against Human adenovirus 37 1477 in human HCE cells assessed as inhibition of viral infection to host cells after 44 hrs by immunofluorescence microscopic analysis; details: Human mastadenovirus D, 1477, HCE
Human adenovirus D37 [5] = assay: Inhibition of 35S-labeled Human adenovirus 37 1477 virion binding to human HCE cells at 1:9 compound to PDA ratio formulation prepared by probe sonication method after 1 hr by scintillation counting; details: Human mastadenovirus D, 1477, HCE
Human adenovirus D37 [6] = assay: Inhibition of 35S-labeled Human adenovirus 37 1477 virion binding to human HCE cells at 0.5:9.5 compound to PDA ratio formulation prepared by probe sonication method after 1 hr by scintillation counting; details: Human mastadenovirus D, 1477, HCE
Human adenovirus D37 [7] = assay: Induction of 35S-labeled Human adenovirus 37 1477 aggregation by liquid scintillation counting
Human adenovirus D37 [8] = assay: Inhibition of 35S-labeled Human adenovirus 37 1477 virion binding to human HCE cells at 2:8 compound to PDA ratio formulation prepared by extrusion method after 1 hr by scintillation counting; details: Human mastadenovirus D, 1477, HCE

SMILES: CCCCCCCCCCCCCCCCCCCCCCCC(=O)NCCOCCOCCOCCOCCOCCC(=O)NCCCCCO[C@]1(C(=O)O)C[C@H](O)[C@@H](NC(C)=O)[C@H]([C@H](O)[C@H](O)CO)O1
IC50 (Human adenovirus D37 [1]): 21 µM

SMILES: CCCCCCCCCCCCCCCCCC(=O)NCCOCCOCCOCCOCCOCCC(=O)NCCCCCO[C@]1(C(=O)O)C[C@H](O)[C@@H](NC(C)=O)[C@H]([C@H](O)[C@H](O)CO)O1
IC50 (Human adenovirus D37 [1]): > 50 µM

Now from value to compound, other results behind:

IC50 (Human adenovirus D37 [1]): > 50 µM
SMILES: CCCCCCCCCCCCC#CC#CCCCCCCCCC(=O)NCCOCCOCCOCCC(=O)NCCCCCO[C@]1(C(=O)O)C[C@H](O)[C@@H](NC(C)=O)[C@H]([C@H](O)[C@H](O)CO)O1

IC50 (Human adenovirus D37 [1]): 7 µM
SMILES: CCCCCCCCCCCCC#CC#CCCCCCCCCC(=O)NCCOCCOCCOCCOCCOCCOCCOCCOCCOCCOCCOCCOCCC(=O)NCCCCCO[C@]1(C(=O)O)C[C@H](O)[C@@H](NC(C)=O)[C@H]([C@H](O)[C@H](O)CO)O1

IC50 (Human adenovirus D37 [2]): > 5 µM
IC50 (Human adenovirus D37 [5]): 0.9 µM
IC50 (Human adenovirus D37 [6]): < 25 µM
IC50 (Human adenovirus D37 [1]): 4 µM
IC50 (Human adenovirus D37 [8]): 26 µM
SMILES: CCCCCCCCCCCCC#CC#CCCCCCCCCC(=O)NCCOCCOCCOCCOCCOCCC(=O)NCCCCCO[C@]1(C(=O)O)C[C@H](O)[C@@H](NC(C)=O)[C@H]([C@H](O)[C@H](O)CO)O1
Activity (Human adenovirus D37 [3]): Active
IC50 (Human adenovirus D37 [4]): 0.7 µM
Activity (Human adenovirus D37 [7]): Active
